The results in this text go back to patent US6822102B2, “Dihydrobenzopyrans, dihydrobenzothiopyrans, and tetrahydroquinolines for the treatment of COX-2 mediated disorders” (Pharmacia Corporation, priority 2000, dated 2004).

Some results are limits rather than exact numbers.

Series [1] deals with T1, COX-2 (UniProt P35354).
T1 sequence (P35354 1-604): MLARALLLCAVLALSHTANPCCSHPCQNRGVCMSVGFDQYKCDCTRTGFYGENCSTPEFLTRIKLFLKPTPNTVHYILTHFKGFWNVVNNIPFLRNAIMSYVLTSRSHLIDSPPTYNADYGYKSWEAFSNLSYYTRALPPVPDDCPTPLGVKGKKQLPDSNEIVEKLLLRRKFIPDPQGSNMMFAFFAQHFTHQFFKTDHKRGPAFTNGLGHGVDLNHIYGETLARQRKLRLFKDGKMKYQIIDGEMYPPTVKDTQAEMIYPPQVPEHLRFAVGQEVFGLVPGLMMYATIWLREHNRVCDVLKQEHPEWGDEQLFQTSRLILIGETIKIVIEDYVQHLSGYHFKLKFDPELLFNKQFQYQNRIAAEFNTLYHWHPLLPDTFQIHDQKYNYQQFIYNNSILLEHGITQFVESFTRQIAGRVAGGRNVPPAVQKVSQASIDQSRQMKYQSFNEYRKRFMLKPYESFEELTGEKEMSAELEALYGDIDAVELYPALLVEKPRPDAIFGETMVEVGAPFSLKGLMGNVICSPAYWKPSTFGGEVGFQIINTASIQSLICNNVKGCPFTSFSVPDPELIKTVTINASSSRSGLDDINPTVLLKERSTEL
Kind of series: Fast assay for COX-2 activity (PGE2 ELISA, recombinant enzyme). It counts as biochemical, human or murine. As to conditions: column marked *; footnote not given. As to the method:
(§1) The COX-2 inhibition activity of the compounds of this invention illustrated in the Examples was determined by the following methods.
(§2) a. Preparation of recombinant COX baculoviruses
(§3) Recombinant COX-1 and COX-2 were prepared as described by Gierse et al, [J. Biochem., 305, 479-84 (1995)]. A 2.0 kb fragment containing the coding region of either human or murine COX-1 or human or murine COX-2 was cloned into a BamHI site of the baculovirus transfer vector pVL1393 (Invitrogen) to generate the baculovirus transfer vectors for COX-1 and COX-2 in a manner similar to the method of D. R. O'Reilly et al (Baculovirus Expression Vectors: A Laboratory Manual (1992)). Recombinant baculoviruses were isolated by transfecting 4 μg of baculovirus transfer vector DNA into SF9 insect cells (2×10^8) along with 200 ng of linearized baculovirus plasmid DNA by the calcium phosphate method. See M. D. Summers and G. E. Smith, A Manual of Methods for Baculovirus Vectors and Insect Cell Culture Procedures, Texas Agric. Exp. Station Bull. 1555 (1987). Recombinant viruses were purified by three rounds of plaque purification and high titer (10^7-10^8 pfu/mL) stocks of virus were prepared. For large scale production, SF9 insect cells were infected in 10 liter fermentors (0.5×10^6/mL) with the recombinant baculovirus stock such that the multiplicity of infection was 0.1. After 72 hours the cells were centrifuged and the cell pellet homogenized in Tris/Sucrose (50 mM: 25%, pH 8.0) containing 1% 3-[(3-cholamidopropyl) dimethylammino]-1-propanesulfonate (CHAPS). The homogenate was centrifuged at 10,000×G for 30 minutes, and the resultant supernatant was stored at −80° C. before being assayed for COX activity.
(§4) c. Fast assay for COX-1 and COX-2 activity
(§5) COX activity was assayed as PGE2 formed/μg protein/time using an ELISA to detect the prostaglandin released. CHAPS-solubilized insect cell membranes containing the appropriate COX enzyme were incubated in a potassium phosphate buffer (0.05 M Potassium phosphate, pH 7.5, 2 μM phenol, 1 μM heme, 300 μM epinephrine) with the addition of 20 μl of 100 μM arachidonic acid (10 μM). Compounds were pre-incubated with the enzyme for 10 minutes at 25° C. prior to the addition of arachidonic acid. Any reaction between the arachidonic acid and the enzyme was stopped after two minutes at 37° C./room temperature by transferring 40 μl of reaction mix into 160 μl ELISA buffer and 25 μM indomethacin. The PGE2 formed was measured by standard ELISA technology (Cayman Chemical).
For orientation: ELISA stands for enzyme-linked immunosorbent assay.

In series [2] the target is COX-1 (UniProt P23219). Kind of series: Fast assay for COX-1 activity (PGE2 ELISA, recombinant enzyme). As to conditions: column marked *; footnote not given. The series is classed as biochemical, human or murine. How it is done: as §2, §3, §4, §5
Series [3] addresses T1, COX-2. In words: Assay for COX-2 activity (PGE2 ELISA, recombinant enzyme). As to conditions: without asterisk. The series is classed as biochemical, human or murine. As to the method: as §1, §2, §3
(§6) b. Assay for COX-1 and COX-2 activity
(§7) COX activity was assayed as PGE2 formed/μg protein/time using an ELISA to detect the prostaglandin released. CHAPS-solubilized insect cell membranes containing the appropriate COX enzyme were incubated in a potassium phosphate buffer (50 mM, pH 8.0) containing epinephrine, phenol, and heme with the addition of arachidonic acid (10 μM). Compounds were pre-incubated with the enzyme for 10-20 minutes prior to the addition of arachidonic acid. Any reaction between the arachidonic acid and the enzyme was stopped after ten minutes at 37° C./room temperature by transferring 40 μl of reaction mix into 160 μl ELISA buffer and 25 μM indomethacin. The PGE2 formed was measured by standard ELISA technology (Cayman Chemical).

In series [4] the target is COX-1 (UniProt P23219). In words: Assay for COX-1 activity (PGE2 ELISA, recombinant enzyme). As to conditions: without asterisk. The series is classed as biochemical, human or murine. How it is done:
as §2, §3, §6, §7

Series [5] relates to carrageenan foot edema. In words: Rat carrageenan foot pad edema test. It counts as in vivo. As to conditions: oral, male Sprague-Dawley rats, 3 h after carrageenan. As to the method:
Rat Carrageenan Foot Pad Edema Test The carrageenan foot edema test was performed with materials, reagents and procedures essentially as described by Winter, et al., (Proc. Soc. Exp. Biol. Med., 111, 544 (1962)). Male Sprague-Dawley rats were selected in each group so that the average body weight was as close as possible. Rats were fasted with free access to water for over sixteen hours prior to the test. The rats were dosed orally (1 mL) with compounds suspended in vehicle containing 0.5% methylcellulose and 0.025% surfactant, or with vehicle alone. One hour later a subplantar injection of 0.1 mL of 1% solution of carrageenan/sterile 0.9% saline was administered and the volume of the injected foot was measured with a displacement plethysmometer connected to a pressure transducer with a digital indicator. Three hours after the injection of the carrageenan, the volume of the foot was again measured. The average foot swelling in a group of drug-treated animals was compared with that of a group of placebo-treated animals and the percentage inhibition of edema was determined (Otterness and Bliven, Laboratory Models for Testing NSAIDs, in Non-steroidal Anti-Inflammatory Drugs, (J. Lombardino, ed. 1985)).
Background: In the carrageenan paw model, swelling and tenderness develop within hours.

The nature of series [6]: Analgesia (Table I). The series is classed as in vivo.

`O=C(O)[C@@H]1Cc2cc(Cl)cc(Cl)c2S[C@@H]1C(F)(F)F` (racemic) [Example 1, rel-(2R, 3S)-6,8-dichloro-3,4-dihydro-2-(trifluoromethyl)-2H-1-benzothiopyran-3-carbolic acid] came in with a melting point of 165 to 170.2 °C.

The compound `O=C(O)[C@@H]1Cc2c(ccc(Cl)c2Cl)O[C@@H]1C(F)(F)F` (racemic) [Example 3, rel-(2R, 3S)-5,6-dichloro-3,4-dihydro-2-(trifluoromethyl)-2H-1-benzopyran-3-carboxylic acid] showed a melting point of 173 to 174.4 °C. Also, the IC50 in series [1] was determined as 200 nM. Further, the concentration for half-maximal inhibition (IC50) in series [2] stood at 5700 nM. Further, the IC50 in series [3] amounted to 200 nM. In series [4], the half-inhibitory concentration (IC50) is more than 100000 nM.

The compound `O=C(O)[C@@H]1Cc2c(cc(Cl)c(Cl)c2Cl)O[C@@H]1C(F)(F)F` (racemic) [Example 5, rel-(2R,3S)-3,4-dihydro-5,6,7-trichloro-2-(trifluoromethyl)-2H-1-benzopyran-3-carboxylic acid] yielded a melting point of 207.3 to 208.5 °C. The concentration for half-maximal inhibition (IC50) in series [1] is 400 nM. The half-inhibitory concentration (IC50) in series [2] is more than 100000 nM. For the same compound, the IC50 in series [3] worked out at 400 nM. The half-maximal inhibitory concentration (IC50) in series [4] was more than 100000 nM.

The compound `O=C(O)[C@@H]1Cc2cc(Cl)c(Cl)c(Cl)c2O[C@@H]1C(F)(F)F` (racemic) [Example 7, rel-(2R, 3S)-3,4-dihydro-6,7,8-trichloro-2-(trifluoromethyl)-2H-1-benzopyran-3-carboxylic acid] returned a melting point of 205.2 to 208.1 °C. Also, in series [1], the IC50 was 600 nM. The IC50 in series [2] is 54000 nM. Besides, the IC50 in series [3] stood at 700 nM. In series [4], the IC50 was more than 100000 nM.

Regarding `O=C(O)[C@@H]1Cc2c(Cl)ccc(Cl)c2O[C@@H]1C(F)(F)F` (racemic) [Example 8, rel-(2R,3S)-5,8-dichloro-3,4-dihydro-2-(trifluoromethyl)-2H-1-benzopyran-3-carboxylic acid], the melting point was 185.7 to 188.9 °C. Also, the IC50 in series [1] is 2300 nM. In addition, the IC50 in series [2] came to 8700 nM. Besides, in series [3], the half-maximal inhibitory concentration (IC50) turned out to be 2000 nM. Further, the IC50 in series [4] is 22000 nM.

In turn, `N#Cc1ccc2c(c1)C[C@@H](C(=O)O)[C@@H](C(F)(F)F)O2` (racemic) [Example 10, rel-(2R,3S)-6-cyano-3,4-dihydro-2-(trifluoromethyl)-2H-1-benzopyran-3-carboxylic acid] gave a melting point of 169 to 170.4 °C. Moreover, the IC50 in series [1] came to 4800 nM. The IC50 in series [2] was more than 100000 nM. For the same compound, the IC50 in series [3] worked out at 18000 nM. For the same compound, in series [4], the half-maximal inhibitory concentration (IC50) is more than 100000 nM.

Compound `O=C(O)[C@@H]1Cc2cc(OC(F)(F)F)ccc2O[C@@H]1C(F)(F)F` (racemic) [Example 11, rel-(2R,3S)-3,4-dihydro-6-trifluoromethoxy-2-(trifluoromethyl)-2H-1-benzopyran-3-carboxylic acid] returned a melting point of 120.1 to 120.8 °C. The IC50 in series [1] stood at 600 nM. In series [2], the IC50 was found to be 65000 nM. Also, the IC50 in series [3] is 400 nM. Further, the 50% inhibitory concentration (IC50) in series [4] is more than 100000 nM.

On to `O=C(O)[C@@H]1Cc2cc(Cl)cc(Cl)c2S[C@@H]1C(F)(F)F` (relative stereo) [Example 1, rel-(2R, 3S)-6,8-dichloro-3,4-dihydro-2-(trifluoromethyl)-2H-1-benzothiopyran-3-carbolic acid], for which the IC50 came to 600 nM in series [1], 600 nM in series [2], 300 nM in series [3] and 600 nM in series [4].

`O=C(O)[C@@H]1Cc2cc(Cl)cc(Cl)c2O[C@@H]1C(F)(F)F` [Example 2, (2S,3R)-6,8-dichloro-3,4-dihydro-2-(trifluoromethyl)-2H-1-benzopyran-3-carboxylic acid] had a melting point of 100.3 to 101.1 °C. Moreover, the “RAT PAW EDEMA % Inhibition @ 30 mg/kg body weight” value in series [5] is 52%. The “ANALGESIA % Inhibition @ 30 mg/kg body weight” value in series [6] is given as 56%. Also, the concentration for half-maximal inhibition (IC50) in series [1] was determined as 300 nM. Besides, the IC50 in series [2] turned out to be 1000 nM. The IC50 in series [3] was 200 nM. Moreover, the concentration for half-maximal inhibition (IC50) in series [4] turned out to be 2800 nM.

`CC(C)(C)c1cc2c(cc1Cl)C[C@@H](C(=O)O)[C@@H](C(F)(F)F)O2` [Example 4, (2S,3R)-6-chloro-3,4-dihydro-7-(1,1-dimethylethyl)-2-(trifluoromethyl)-2H-1-benzopyran-3-carboxylic acid] registered a melting point of 115.8 to 120.9 °C. In addition, the concentration for half-maximal inhibition (IC50) in series [1] came out at 1600 nM. The IC50 in series [2] was found to be 1300 nM. Also, in series [3], the half-maximal inhibitory concentration (IC50) was more than 100000 nM. The 50% inhibitory concentration (IC50) in series [4] stood at 12000 nM.

Regarding `O=C(O)[C@@H]1Cc2cc(Cl)ccc2N[C@@H]1C(F)(F)F` [Example 6, (2S,3R)-6-Chloro-1,2,3,4-tetrahydro-2-(trifluoromethyl)-3-quinolinecarboxylic acid], the melting point was 154.4 to 154.5 °C. In addition, the 50% inhibitory concentration (IC50) in series [1] is 2600 nM. For the same compound, in series [2], the IC50 was more than 100000 nM. In series [3], the IC50 is 25000 nM. In addition, in series [4], the IC50 was more than 100000 nM.

`O=C(O)[C@@H]1Cc2cc(Cl)ccc2O[C@@H]1C(F)(F)F` [Example 9, (2S,3R)-6-chloro-3,4-dihydro-2-(trifluoromethyl)-2H-1-benzopyran-3-carboxylic acid] showed a melting point of 118.1 to 119.2 °C. In addition, the IC50 in series [1] is 500 nM. The 50% inhibitory concentration (IC50) in series [2] is more than 100000 nM. Besides, the IC50 in series [3] is 29000 nM. In addition, the half-maximal inhibitory concentration (IC50) in series [4] was more than 100000 nM.

The melting point is the temperature, or range, at which the solid turns liquid. For orientation: IC50 means the concentration at which inhibition is half-maximal.
